According to patent US7138361B2, “Herbicidal heterocycles” (E. I. du Pont de Nemours and Company, priority 2000, dated 2006):

How the values were obtained:
Assay type in all cases: in vivo
[1] = system: wheat (Triticum aestivum); assay: Test B postemergence
From the text: (§1) Seeds selected from barnyardgrass (Echinochloa crus-galli), Surinam grass (Brachiaria decumbens), cocklebur (Xanthium strumarium), corn (Zea mays), crabgrass (Digitaria sanguinalis), giant foxtail (Setaria faberii), lambsquarters (Chenopodium album), morning glory (Ipomoea hederacea), pigweed (Amaranthus retroflexus), rice (Oryza saliva) and velvetleaf (Abutilon theophrasti) were planted and treated preemergence with test chemicals formulated in a non-phytotoxic solvent mixture which included a surfactant.
(§2) At the same time, plants selected from these crop and weed species and also blackgrass (Alopecurus myosuroides), wheat (Triticum aestivum) and wild oat (Avena fatua) were treated with postemergence applications of test chemicals formulated in the same manner. Plants ranged in height from 2 to 18 cm (1- to 4-leaf stage) for postemergence treatments. Plant species in the flooded paddy test consisted of rice (Oryza saliva), smallflower flatsedge (Cyperus difformis), duck salad (Heteranthera limosa) and barnyardgrass (Echinochloa crus-galli) grown to the 2-leaf stage for testing. Treated plants and controls were maintained in a greenhouse for 13 to 15 days, after which time all species were compared to controls and visually evaluated. Plant response ratings, summarized in Table B, are based on a scale of 0 to 100 where 0 is no effect and 100 is complete control. A dash (-) response means no test result.

[2] = system: lambsquarters (Chenopodium album); assay: Test B postemergence
From the text: as §1, §2

[3] = system: barnyardgrass (Echinochloa crus-galli); assay: Test B postemergence
From the text: as §1, §2

[4] = system: cocklebur (Xanthium strumarium); assay: Test B postemergence
From the text: as §1, §2

[5] = system: blackgrass (Alopecurus myosuroides); assay: Test B postemergence
From the text: as §1, §2

[6] = system: pigweed (Amaranthus retroflexus); assay: Test B postemergence
From the text: as §1, §2

[7] = system: Surinam grass (Brachiaria decumbens); assay: Test B postemergence
From the text: as §1, §2

[8] = system: giant foxtail (Setaria faberii); assay: Test B postemergence
From the text: as §1, §2

wild oat (Avena fatua) = assay: Test B postemergence
From the text: as §1, §2

[9] = system: crabgrass (Digitaria sanguinalis); assay: Test B postemergence
From the text: as §1, §2

[10] = system: velvetleaf (Abutilon theophrasti); assay: Test B postemergence
From the text: as §1, §2

[11] = system: morning glory (Ipomoea hederacea); assay: Test B postemergence
From the text: as §1, §2

corn (Zea mays) [12] = assay: Test B postemergence
From the text: as §1, §2

[13] = system: duck salad (Heteranthera limosa); assay: Test C flooded paddy test; conditions: for Ducksalad plant response rating: Flooded Paddy, scale 0 to 100, 0 no effect, 100 complete control; for Plant response rating, Ducksalad: flooded paddy test, scale 0 to 100 (0 no effect, 100 complete control)
Description: (§3) At the same time, plants selected from these crop and weed species and also winter barley (Hordeum vulgare), blackgrass (Alopecurus myosuroides), canary grass (Phalaris minor), chickweed (Stellaria media), downy brome (Bromus tectorum), green foxtail (Setaria viridis), Italian ryegrass (Lolium multiflorum), wheat (Triticum aestivum), wild oat (Avena fatua) and windgrass (Apera spica-venti) were treated with postemergence applications of some of the test chemicals formulated in the same manner. Plants ranged in height from 2 to 18 cm (1- to 4-leaf stage) for postemergence treatments. Plant species in the flooded paddy test consisted of rice (Oryza saliva), smallflower flatsedge (Cyperus difformis), duck salad (Heteranthera limosa) and barnyardgrass (Echinochloa crus-galli) grown to the 2-leaf stage for testing. Treated plants and controls were maintained in a greenhouse for 12 to 14 days, after which time all species were compared to controls and visually evaluated. Plant response ratings, summarized in Table C, are based on a scale of 0 to 100 where 0 is no effect and 100 is complete control. A dash (-) response means no test result.

[14] = system: barnyardgrass (Echinochloa crus-galli); assay: Test C flooded paddy test; conditions: for Barnyardgrass plant response rating: Flooded Paddy, scale 0 to 100, 0 no effect, 100 complete control; for Plant response rating, Barnyardgrass: flooded paddy test, scale 0 to 100 (0 no effect, 100 complete control)
Description: as §3

[15] = system: smallflower flatsedge (Cyperus difformis); assay: Test C flooded paddy test; conditions: for Flatsedge plant response rating: Flooded Paddy, scale 0 to 100, 0 no effect, 100 complete control; for Plant response rating, Flatsedge: flooded paddy test, scale 0 to 100 (0 no effect, 100 complete control)
Description: as §3

rice (Oryza saliva) [16] = assay: Test C flooded paddy test; conditions: for Rice plant response rating: Flooded Paddy, scale 0 to 100, 0 no effect, 100 complete control; for Plant response rating, Rice: flooded paddy test, scale 0 to 100 (0 no effect, 100 complete control)
Description: as §3

[17] = system: lambsquarters (Chenopodium album); assay: Test B preemergence
From the text: as §1, §2

[18] = system: barnyardgrass (Echinochloa crus-galli); assay: Test B preemergence
From the text: as §1, §2

[19] = system: cocklebur (Xanthium strumarium); assay: Test B preemergence
From the text: as §1, §2

[20] = system: pigweed (Amaranthus retroflexus); assay: Test B preemergence
From the text: as §1, §2

[21] = system: Surinam grass (Brachiaria decumbens); assay: Test B preemergence
From the text: as §1, §2

[22] = system: giant foxtail (Setaria faberii); assay: Test B preemergence
From the text: as §1, §2

[23] = system: crabgrass (Digitaria sanguinalis); assay: Test B preemergence
From the text: as §1, §2

[24] = system: velvetleaf (Abutilon theophrasti); assay: Test B preemergence
From the text: as §1, §2

rice (Oryza saliva) [25] = assay: Test B preemergence
From the text: as §1, §2

[26] = system: morning glory (Ipomoea hederacea); assay: Test B preemergence
From the text: as §1, §2

corn (Zea mays) [27] = assay: Test B preemergence
From the text: as §1, §2

[28] = Rate 125 g/ha, scale 0 to 100, 0 no effect, 100 complete control
[29] = Rate 500 g/ha, scale 0 to 100, 0 is no effect, 100 is complete control, 13 to 15 days
[30] = Preemergence, Rate 500 g/ha, scale 0 to 100, 0 no effect, 100 complete control
[31] = preemergence, Rate 125 g/ha, scale of 0 to 100 where 0 is no effect and 100 is complete control, 13 to 15 days

CCCCC(CCCC)c1ccn(C2SCN(c3cccc(OC(F)(F)F)c3)C2=O)n1 (stereo not shown) [Compound 115]
Plant response rating, Wheat [1, 28]: 40 | Plant response rating, Wheat [1, 29]: 50 | Plant response rating, Lambsquarters [2, 28]: 0 | Plant response rating, Lambsquarters [2, 29]: 0 | Plant response rating, Barnyardgrass [3, 28]: 0 | Plant response rating, Barnyardgrass [3, 29]: 0 | Plant response rating, Cocklebur [4, 28]: 20 | Plant response rating, Cocklebur [4, 29]: 70 | Plant response rating, Blackgrass [5, 28]: 0 | Plant response rating, Blackgrass [5, 29]: 0 | Plant response rating, Pigweed [6, 28]: 50 | Plant response rating, Pigweed [6, 29]: 60 | Plant response rating, Surinam grass [7, 28]: 20 | Plant response rating, Surinam grass [7, 29]: 100 | Plant response rating, Foxtail, Giant [8, 28]: 0 | Plant response rating, Foxtail, Giant [8, 29]: 0 | Plant response rating, Wild Oat (wild oat (Avena fatua); [28]): 30 | Plant response rating, Wild Oat (wild oat (Avena fatua); [29]): 60 | Plant response rating, Crabgrass [9, 28]: 20 | Plant response rating, Crabgrass [9, 29]: 30 | Plant response rating, Velvetleaf [10, 28]: 0 | Plant response rating, Velvetleaf [10, 29]: 0 | Plant response rating, Morningglory [11, 28]: 0 | Plant response rating, Morningglory [11, 29]: 0 | Plant response rating, Corn (corn (Zea mays) [12]; [28]): 20 | Plant response rating, Corn (corn (Zea mays) [12]; [29]): 20 | Ducksalad plant response rating ([13]; Rate 250 g/ha): 0 | Ducksalad plant response rating ([13]; Rate 500 g/ha): 0 | Plant response rating, Ducksalad ([13]; Rate 62 g/ha): 0 | Plant response rating, Ducksalad ([13]; Rate 125 g/ha): 0 | Barnyardgrass plant response rating ([14]; Rate 250 g/ha): 0 | Barnyardgrass plant response rating ([14]; Rate 500 g/ha): 0 | Plant response rating, Barnyardgrass ([14]; Rate 62 g/ha): 0 | Plant response rating, Barnyardgrass ([14]; Rate 125 g/ha): 0 | Flatsedge plant response rating ([15]; Rate 250 g/ha): 0 | Flatsedge plant response rating ([15]; Rate 500 g/ha): 0 | Plant response rating, Flatsedge ([15]; Rate 62 g/ha): 0 | Plant response rating, Flatsedge ([15]; Rate 125 g/ha): 0 | Rice plant response rating (rice (Oryza saliva) [16]; Rate 250 g/ha): 0 | Rice plant response rating (rice (Oryza saliva) [16]; Rate 500 g/ha): 0 | Plant response rating, Rice (rice (Oryza saliva) [16]; Rate 62 g/ha): 0 | Plant response rating, Rice (rice (Oryza saliva) [16]; Rate 125 g/ha): 0 | Plant response rating, Lambsquarters [17, 30]: 0 | Plant response rating, Lambsquarters [17, 31]: 0 | Plant response rating, Barnyardgrass [18, 30]: 0 | Plant response rating, Barnyardgrass [18, 31]: 0 | Plant response rating, Cocklebur [19, 30]: 0 | Plant response rating, Cocklebur [19, 31]: 0 | Plant response rating, Pigweed [20, 30]: 0 | Plant response rating, Pigweed [20, 31]: 0 | Plant response rating, Surinam grass [21, 30]: 0 | Plant response rating, Surinam grass [21, 31]: 0 | Plant response rating, Foxtail, Giant [22, 30]: 0 | Plant response rating, Foxtail, Giant [22, 31]: 0 | Plant response rating, Crabgrass [23, 30]: 0 | Plant response rating, Crabgrass [23, 31]: 0 | Plant response rating, Velvetleaf [24, 30]: 0 | Plant response rating, Velvetleaf [24, 31]: 0 | Plant response rating, Rice (rice (Oryza saliva) [25]; [30]): 0 | Plant response rating, Rice (rice (Oryza saliva) [25]; [31]): 0 | Plant response rating, Morningglory [26, 30]: 0 | Plant response rating, Morningglory [26, 31]: 0 | Plant response rating, Corn (corn (Zea mays) [27]; [30]): 0 | Plant response rating, Corn (corn (Zea mays) [27]; [31]): 0
